Among the data in patent US11352359B2, “PI3K protein kinase inhibitors” (Rhizen Pharmaceuticals SA, priority 2013, dated 2022) are inhibition and IC50 values, retold here.

Common to all, as to assay type: biochemical
The target of one experiment is PI3Kβ (Homo sapiens, UniProt P42338). Nature of the experiment: Fluorescent determination of PI3Kinase enzyme activity (HTRF), PI3Kβ. An excerpt:
(§1) Fluorescent Determination of PI3Kinase Enzyme Activity
(§2) Phosphoinositide 3 kinases (PI3K) belong to a class of Lipid kinases that play a critical role in the regulation of several key cellular processes. The PI3K are capable of phosphorylating the 3-hydroxy position of phosphoinositols thereby generating second messengers involved in downstream signalling events. The homogenous time resolved fluorescence (HTRF) assay allows detection of 3,4,5-triphosphate (PIP3) formed as a result of phosphorylation of phosphotidylinositol 4,5-biphosphate (PIP2) by PI3K isoforms such as α, […], γ or δ.
(§3) PI3K isoform activity for α, β, γ or δ is to be determined using a PI3K human HTRF™ Assay Kit (Millipore, Billerica, Mass.) with modifications. All incubations were carried out at room temperature. Briefly, 0.5 μl of 40× inhibitor (in 100% DMSO) or 100% DMSO were added to each well of a 384-well black plate (Greiner Bio-One, Monroe, N.C.) containing 14.5 μl 1× reaction buffer/PIP2 (10 mM MgCl2, 5 mM DTT, 1.38 μM PIP2) mix with or without enzyme and incubated for 10 min. After the initial incubation, 5 μl/well of 400 μM ATP was added and incubated for an additional 30 minutes. Reaction was terminated by adding 5 μl/well stop solution (Millipore, Billerica, Mass.). Five microliters of detection mix (Millipore, Billerica, Mass.) were then added to each well and was incubated for 6-18 h in the dark. HRTF ratio was measured on a microplate reader (BMG Labtech, Germany) at an excitation wavelength of 337 nm and emission wavelengths of 665 and 620 nm with an integration time of 400 μsec. Data was analyzed using Graphpad Prism (Graphpad software; San Diego Calif.) for IC50 determination).

Another experiment has as its target PI3Kα (Homo sapiens, UniProt P42336). Nature of the experiment: Fluorescent determination of PI3Kinase enzyme activity (HTRF), PI3Kα.
Description: as §1, §2, §3
(In general: TR-FRET usually uses a lanthanide donor and a delayed reading to cut background.)

The target in a further experiment is PI3Kγ (Homo sapiens, UniProt P48736). Description: Fluorescent determination of PI3Kinase enzyme activity (HTRF), PI3Kγ. As to conditions: for inhibition at 0.1 µM: 100 nM (underlined values: 300 nM).
PI3Kγ, sequence (P48736 whole entry): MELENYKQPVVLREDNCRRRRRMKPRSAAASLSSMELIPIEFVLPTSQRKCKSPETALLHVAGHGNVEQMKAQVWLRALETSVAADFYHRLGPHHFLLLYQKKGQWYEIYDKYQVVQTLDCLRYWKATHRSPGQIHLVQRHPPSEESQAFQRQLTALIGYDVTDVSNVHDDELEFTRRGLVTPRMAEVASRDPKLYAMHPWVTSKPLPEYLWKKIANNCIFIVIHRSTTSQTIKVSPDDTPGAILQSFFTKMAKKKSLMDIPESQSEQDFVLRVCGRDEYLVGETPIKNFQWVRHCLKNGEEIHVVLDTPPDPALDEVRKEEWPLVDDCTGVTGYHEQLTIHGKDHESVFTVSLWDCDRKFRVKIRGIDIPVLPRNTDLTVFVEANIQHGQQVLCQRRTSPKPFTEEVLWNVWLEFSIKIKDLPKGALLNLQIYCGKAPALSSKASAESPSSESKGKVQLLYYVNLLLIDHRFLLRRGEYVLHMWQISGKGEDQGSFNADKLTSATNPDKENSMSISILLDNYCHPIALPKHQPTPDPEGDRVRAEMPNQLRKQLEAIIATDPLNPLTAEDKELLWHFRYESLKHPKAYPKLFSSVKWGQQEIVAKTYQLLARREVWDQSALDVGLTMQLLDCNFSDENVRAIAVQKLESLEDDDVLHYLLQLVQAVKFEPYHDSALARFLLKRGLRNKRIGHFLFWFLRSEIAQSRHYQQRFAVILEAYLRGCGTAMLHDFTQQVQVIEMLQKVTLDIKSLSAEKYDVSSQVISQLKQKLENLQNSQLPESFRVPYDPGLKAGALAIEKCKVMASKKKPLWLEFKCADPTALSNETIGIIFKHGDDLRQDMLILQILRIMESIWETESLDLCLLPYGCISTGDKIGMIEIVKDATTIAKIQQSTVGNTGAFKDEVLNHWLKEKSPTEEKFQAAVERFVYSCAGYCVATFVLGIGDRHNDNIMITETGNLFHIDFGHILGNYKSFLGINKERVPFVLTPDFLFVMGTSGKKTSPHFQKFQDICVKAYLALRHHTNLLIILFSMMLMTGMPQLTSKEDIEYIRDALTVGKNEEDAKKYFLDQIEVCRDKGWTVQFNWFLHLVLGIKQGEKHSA
Description: as §1, §2, §3

The target in the next experiment is PI3Kδ (Homo sapiens, UniProt O00329). Nature of the experiment: Fluorescent determination of PI3Kinase enzyme activity (HTRF), PI3Kδ. As to conditions: for inhibition at 0.1 µM: 100 nM (underlined values: 300 nM).
PI3Kδ, sequence (O00329 whole entry): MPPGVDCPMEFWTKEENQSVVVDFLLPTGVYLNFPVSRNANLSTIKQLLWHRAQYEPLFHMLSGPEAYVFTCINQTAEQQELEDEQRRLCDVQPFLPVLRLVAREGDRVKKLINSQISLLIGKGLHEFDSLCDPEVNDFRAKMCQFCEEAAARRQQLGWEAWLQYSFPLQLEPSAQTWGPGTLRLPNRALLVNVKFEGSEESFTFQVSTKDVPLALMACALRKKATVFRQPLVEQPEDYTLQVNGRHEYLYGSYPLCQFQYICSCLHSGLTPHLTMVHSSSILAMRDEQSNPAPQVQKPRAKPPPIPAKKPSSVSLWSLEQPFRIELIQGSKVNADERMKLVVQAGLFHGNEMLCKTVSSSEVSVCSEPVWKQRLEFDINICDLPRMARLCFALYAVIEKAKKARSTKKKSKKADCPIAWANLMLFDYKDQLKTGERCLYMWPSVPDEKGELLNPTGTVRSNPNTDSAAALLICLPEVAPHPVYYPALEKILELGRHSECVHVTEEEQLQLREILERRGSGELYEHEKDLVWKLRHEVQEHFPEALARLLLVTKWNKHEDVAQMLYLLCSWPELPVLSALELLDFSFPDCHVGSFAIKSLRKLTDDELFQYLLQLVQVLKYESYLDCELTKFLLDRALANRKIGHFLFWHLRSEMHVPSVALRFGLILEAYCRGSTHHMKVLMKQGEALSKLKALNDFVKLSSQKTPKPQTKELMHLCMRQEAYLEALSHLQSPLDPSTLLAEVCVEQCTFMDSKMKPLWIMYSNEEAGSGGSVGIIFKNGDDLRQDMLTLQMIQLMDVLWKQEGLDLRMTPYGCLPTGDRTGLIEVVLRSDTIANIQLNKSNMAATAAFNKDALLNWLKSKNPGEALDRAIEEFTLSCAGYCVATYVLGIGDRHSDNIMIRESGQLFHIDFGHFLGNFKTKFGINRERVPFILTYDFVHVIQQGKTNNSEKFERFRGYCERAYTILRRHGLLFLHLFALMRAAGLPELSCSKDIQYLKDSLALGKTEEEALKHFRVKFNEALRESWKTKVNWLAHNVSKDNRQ
PI3Kδ, sequence (P27986 whole entry partner): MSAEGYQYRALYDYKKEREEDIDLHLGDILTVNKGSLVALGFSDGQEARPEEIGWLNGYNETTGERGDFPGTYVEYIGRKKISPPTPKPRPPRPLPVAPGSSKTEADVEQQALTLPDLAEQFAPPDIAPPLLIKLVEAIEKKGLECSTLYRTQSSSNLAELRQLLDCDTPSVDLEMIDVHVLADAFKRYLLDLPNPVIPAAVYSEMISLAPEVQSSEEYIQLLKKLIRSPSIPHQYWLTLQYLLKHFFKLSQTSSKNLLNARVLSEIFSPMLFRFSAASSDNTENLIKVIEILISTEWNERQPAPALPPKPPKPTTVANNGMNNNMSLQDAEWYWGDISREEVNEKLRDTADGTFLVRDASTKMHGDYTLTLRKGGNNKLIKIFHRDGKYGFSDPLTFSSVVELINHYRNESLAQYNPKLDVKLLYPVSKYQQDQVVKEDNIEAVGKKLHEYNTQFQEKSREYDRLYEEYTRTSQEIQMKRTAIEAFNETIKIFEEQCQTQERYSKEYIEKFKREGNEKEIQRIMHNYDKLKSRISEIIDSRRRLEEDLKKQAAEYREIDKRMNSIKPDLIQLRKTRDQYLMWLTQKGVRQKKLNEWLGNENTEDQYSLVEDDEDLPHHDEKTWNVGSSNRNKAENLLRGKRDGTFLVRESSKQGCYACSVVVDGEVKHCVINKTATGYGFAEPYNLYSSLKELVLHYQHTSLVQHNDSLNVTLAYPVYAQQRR
Description: as §1, §2, §3

PI3Kα, sequence (P42336 whole entry): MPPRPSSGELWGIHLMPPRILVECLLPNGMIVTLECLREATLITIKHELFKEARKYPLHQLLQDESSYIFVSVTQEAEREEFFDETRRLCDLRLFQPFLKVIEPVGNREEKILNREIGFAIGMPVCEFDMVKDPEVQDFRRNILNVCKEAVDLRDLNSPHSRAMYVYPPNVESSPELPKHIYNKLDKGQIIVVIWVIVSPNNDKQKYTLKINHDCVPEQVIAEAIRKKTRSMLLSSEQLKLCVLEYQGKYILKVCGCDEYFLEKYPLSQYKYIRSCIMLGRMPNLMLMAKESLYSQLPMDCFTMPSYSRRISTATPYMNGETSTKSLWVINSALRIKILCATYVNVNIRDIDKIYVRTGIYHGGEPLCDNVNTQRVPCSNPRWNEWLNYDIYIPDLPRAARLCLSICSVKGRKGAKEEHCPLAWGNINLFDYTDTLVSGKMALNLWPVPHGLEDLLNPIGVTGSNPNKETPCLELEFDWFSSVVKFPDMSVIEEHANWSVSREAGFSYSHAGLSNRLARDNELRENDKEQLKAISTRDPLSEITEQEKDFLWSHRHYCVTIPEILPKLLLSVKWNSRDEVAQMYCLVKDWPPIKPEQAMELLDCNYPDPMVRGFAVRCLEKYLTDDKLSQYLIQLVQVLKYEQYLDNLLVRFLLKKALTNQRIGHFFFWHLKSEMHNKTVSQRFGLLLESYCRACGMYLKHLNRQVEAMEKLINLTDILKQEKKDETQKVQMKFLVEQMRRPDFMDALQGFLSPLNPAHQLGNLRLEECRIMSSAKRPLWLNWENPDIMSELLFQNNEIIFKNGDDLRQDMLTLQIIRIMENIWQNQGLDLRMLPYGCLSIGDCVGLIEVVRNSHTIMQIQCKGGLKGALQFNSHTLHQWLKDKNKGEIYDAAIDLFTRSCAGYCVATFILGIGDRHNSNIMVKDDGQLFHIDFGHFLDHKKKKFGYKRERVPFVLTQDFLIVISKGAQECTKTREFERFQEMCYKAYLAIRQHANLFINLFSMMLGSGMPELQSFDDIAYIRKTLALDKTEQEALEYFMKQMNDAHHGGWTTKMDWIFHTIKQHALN
PI3Kα, sequence (P27986 whole entry partner): as the sequence (P27986 whole entry partner) above
PI3Kβ, sequence (P42338 whole entry): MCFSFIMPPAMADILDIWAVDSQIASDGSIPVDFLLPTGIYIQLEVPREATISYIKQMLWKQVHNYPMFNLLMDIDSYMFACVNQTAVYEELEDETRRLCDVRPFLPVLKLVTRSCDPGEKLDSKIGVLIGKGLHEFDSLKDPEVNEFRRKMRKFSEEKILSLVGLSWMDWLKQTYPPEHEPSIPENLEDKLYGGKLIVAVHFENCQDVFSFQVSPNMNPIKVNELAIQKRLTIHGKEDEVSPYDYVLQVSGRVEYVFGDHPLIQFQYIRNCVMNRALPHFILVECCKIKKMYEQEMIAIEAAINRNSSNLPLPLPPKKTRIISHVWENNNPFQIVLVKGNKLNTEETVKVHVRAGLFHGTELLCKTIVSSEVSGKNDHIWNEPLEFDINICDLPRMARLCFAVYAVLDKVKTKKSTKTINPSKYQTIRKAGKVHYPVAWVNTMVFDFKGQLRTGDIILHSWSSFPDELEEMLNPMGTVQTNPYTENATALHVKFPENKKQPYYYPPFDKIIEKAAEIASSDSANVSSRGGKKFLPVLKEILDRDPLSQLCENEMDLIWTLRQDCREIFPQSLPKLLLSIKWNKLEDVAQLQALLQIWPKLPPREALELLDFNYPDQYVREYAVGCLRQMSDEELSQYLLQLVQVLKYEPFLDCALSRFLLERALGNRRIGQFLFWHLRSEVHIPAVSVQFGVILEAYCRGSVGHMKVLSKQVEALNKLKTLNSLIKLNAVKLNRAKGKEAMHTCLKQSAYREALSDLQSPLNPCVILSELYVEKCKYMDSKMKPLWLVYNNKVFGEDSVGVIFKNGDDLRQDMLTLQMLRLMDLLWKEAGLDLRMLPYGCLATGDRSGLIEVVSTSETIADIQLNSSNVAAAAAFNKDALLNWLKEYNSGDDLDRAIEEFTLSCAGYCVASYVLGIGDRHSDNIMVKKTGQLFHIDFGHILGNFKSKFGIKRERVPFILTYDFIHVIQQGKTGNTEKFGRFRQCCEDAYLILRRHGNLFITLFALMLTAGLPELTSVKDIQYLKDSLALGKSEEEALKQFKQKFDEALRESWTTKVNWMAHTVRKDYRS
PI3Kβ, sequence (P27986 whole entry partner): as the sequence (P27986 whole entry partner) above

In the case of `C[C@@H](c1cc2cccc(Cl)c2c(=O)n1-c1ccccc1)n1nc(-c2ccc(OC(F)F)c(F)c2)c2c(N)ncnc21` [Example 17a, (+)-3-(1-(4-amino-3-(4-(difluoromethoxy)-3-fluorophenyl)-1H-pyrazolo[3,4-d]pyrimidin-1-yl)ethyl)-8-chloro-2-phenylisoquinolin-1(2H)-one], the inhibition at 1 µM against PI3Kβ and against PI3Kα was 0 to 10% throughout. Also, the inhibition (commonly the share of the control response that was lost under treatment) at 0.1 µM against PI3Kγ was 0 to 20%; against PI3Kδ, 20 to 40%.

Consider `COc1ccc(-c2nn([C@@H](C)c3cc4cccc(Cl)c4c(=O)n3-c3ccccc3)c3ncnc(N)c23)cc1NS(C)(=O)=O` [Example 20a, (+)—N-(5-(4-amino-1-(1-(8-chloro-1-oxo-2-phenyl-1,2-dihydroisoquinolin-3-yl)ethyl)-1H-pyrazolo[3,4-d]pyrimidin-3-yl)-2-methoxyphenyl)methanesulfonamide], for which the values for the inhibition at 1 µM on PI3Kβ and against PI3Kα were 10 to 20% and 0 to 10%, respectively. In addition, the concentration for half-maximal inhibition (IC50) (in general, the concentration at which inhibition is half-maximal) on PI3Kγ turned out to be 142 nM; at PI3Kδ, 76.4 nM. In addition, the values for the inhibition at 0.1 µM against PI3Kγ and at PI3Kδ were 20 to 40% and 60 to 80%, respectively.

In the case of `CC(C)Oc1ccc(-c2nn(C(C)c3nc4cccc(F)c4c(=O)n3-c3ccccc3)c3ncnc(N)c23)cc1F` (stereo not drawn) [Example 3, 2-(1-(4-amino-3-(3-fluoro-4-isopropoxyphenyl)-1H-pyrazolo[3,4-d]pyrimidin-1-yl)ethyl)-5-fluoro-3-phenylquinazolin-4(3H)-one], the inhibition at 1 µM is 10 to 20% against PI3Kβ and 0 to 10% at PI3Kα. Besides, the inhibition at 0.1 µM against PI3Kγ and against PI3Kδ was 0 to 20% throughout.

`C[C@@H](c1cc2cccc(Cl)c2c(=O)n1-c1ccccc1)n1nc(-c2ccc(O)c(F)c2)c2c(N)ncnc21` [Example 14a, (+)-3-(1-(4-amino-3-(3-fluoro-4-hydroxyphenyl)-1H-pyrazolo[3,4-d]pyrimidin-1-yl)ethyl)-8-chloro-2-phenylisoquinolin-1(2H)-one]: the inhibition at 1 µM against PI3Kβ lay in the range of 10 to 20%; on PI3Kα it was 0 to 10%. Further, the results for the 50% inhibitory concentration (IC50) against PI3Kγ and against PI3Kδ were 19.5 nM and 4.2 nM, respectively. In addition, the inhibition at 0.1 µM at PI3Kγ and against PI3Kδ was 80 to 100% in each case.

Take `CC(c1cc2cccc(Cl)c2c(=O)n1-c1ccccc1)n1nc(-c2ccc(OC(F)F)c(F)c2)c2c(N)ncnc21` (stereo not drawn) [Example 17, 3-(1-(4-amino-3-(4-(difluoromethoxy)-3-fluorophenyl)-1H-pyrazolo[3,4-d]pyrimidin-1-yl)ethyl)-8-chloro-2-phenylisoquinolin-1(2H)-one]: the values for the inhibition at 1 µM on PI3Kβ and at PI3Kα were 40 to 60% and 20 to 40%, respectively. For the same compound, the inhibition at 0.1 µM on PI3Kγ and on PI3Kδ was 80 to 100% throughout.

Turning to `CC(C)Oc1ccc(-c2nn([C@@H](C)c3cc4ccccc4c(=O)n3-c3ccccc3)c3ncnc(N)c23)cc1F` [Example 5a, (+)-3-(1-(4-amino-3-(3-fluoro-4-isopropoxyphenyl)-1H-pyrazolo[3,4-d]pyrimidin-1-yl)ethyl)-2-phenylisoquinolin-1(2H)-one], the inhibition at 1 µM fell in the range of 20 to 40% on PI3Kβ and 0 to 10% against PI3Kα. For the same compound, the concentration for half-maximal inhibition (IC50) against PI3Kγ was determined as 22.2 nM; on PI3Kδ, 3.05 nM. Also, the inhibition at 0.1 µM on PI3Kγ was in the range of 60 to 80%; against PI3Kδ, 80 to 100%.

In the case of `COc1ccc(-c2nn(C(C)c3cc4cccc(Cl)c4c(=O)n3-c3ccccc3)c3ncnc(N)c23)cc1NS(C)(=O)=O` (stereo not drawn) [Example 20, N-(5-(4-amino-1-(1-(8-chloro-1-oxo-2-phenyl-1,2-dihydroisoquinolin-3-yl)ethyl)-1H-pyrazolo[3,4-d]pyrimidin-3-yl)-2-methoxyphenyl)methanesulfonamide], the inhibition at 1 µM was 20 to 40% against PI3Kβ and 40 to 60% against PI3Kα. Also, the figures for the inhibition at 0.1 µM at PI3Kγ and against PI3Kδ were 60 to 80% and 80 to 100%, respectively.

With `CC(C)Oc1ccc(-c2nn(C(C)c3cc4ccccc4c(=O)n3-c3ccccc3)c3ncnc(N)c23)cc1F` (stereo not drawn) [Example 5, 3-(1-(4-amino-3-(3-fluoro-4-isopropoxyphenyl)-1H-pyrazolo[3,4-d]pyrimidin-1-yl)ethyl)-2-phenylisoquinolin-1(2H)-one], the inhibition at 1 µM against PI3Kβ fell in the range of 10 to 20%; against PI3Kα, 0 to 10%. Besides, the inhibition at 0.1 µM lay in the range of 60 to 80% at PI3Kγ and 80 to 100% on PI3Kδ.

With `COc1ccc(-c2nn(C(C)c3nc4ccccc4c(=O)n3-c3ccccc3)c3ncnc(N)c23)cc1NS(C)(=O)=O` (stereo not drawn) [Example 12, N-(5-(4-amino-1-(1-(4-oxo-3-phenyl-3,4-dihydroquinazolin-2-yl)ethyl)-1H-pyrazolo[3,4-d]pyrimidin-3-yl)-2-methoxyphenyl)methanesulfonamide], the inhibition at 1 µM against PI3Kβ fell in the range of 20 to 40%; at PI3Kα it was 0 to 10%. Besides, the inhibition at 0.1 µM lay within 20 to 40% against PI3Kγ and 0 to 20% against PI3Kδ.

On to `C[C@@H](c1cc2ccccc2c(=O)n1-c1ccccc1)n1nc(-c2ccc(O)c(F)c2)c2c(N)ncnc21` [Example 7a, (+)-3-(1-(4-amino-3-(3-fluoro-4-hydroxyphenyl)-1H-pyrazolo[3,4-d]pyrimidin-1-yl)ethyl)-2-phenylisoquinolin-1(2H)-one], for which the values for the inhibition at 1 µM against PI3Kβ and on PI3Kα were 20 to 40% and 0 to 10%, respectively. Besides, the half-maximal inhibitory concentration (IC50) on PI3Kγ came to 57.7 nM; on PI3Kδ it was 13.3 nM. The inhibition at 0.1 µM against PI3Kγ and on PI3Kδ was 60 to 80% in each case.

Turning to `COc1ccc(-c2nn([C@@H](C)c3cc4ccccc4c(=O)n3-c3ccccc3)c3ncnc(N)c23)cc1NS(C)(=O)=O` [Example 9a, (+)—N-(5-(4-amino-1-(1-(1-oxo-2-phenyl-1,2-dihydroisoquinolin-3-yl)ethyl)-1H-pyrazolo[3,4-d]pyrimidin-3-yl)-2-methoxyphenyl)methanesulfonamide], the inhibition at 1 µM against PI3Kβ lay in the range of 20 to 40%; on PI3Kα, 0 to 10%. The IC50 on PI3Kγ was 203 nM; against PI3Kδ, 16.2 nM. The inhibition at 0.1 µM at PI3Kγ was 40 to 60%; against PI3Kδ it was 80 to 100%.

Take `C[C@@H](c1nc2cccc(F)c2c(=O)n1-c1ccccc1)n1nc(-c2ccc(O)c(F)c2)c2c(N)ncnc21` [Example 16a, (+)-2-(1-(4-amino-3-(3-fluoro-4-hydroxyphenyl)-1H-pyrazolo[3,4-d]pyrimidin-1-yl)ethyl)-5-fluoro-3-phenylquinazolin-4(3H)-one]: the inhibition at 1 µM at PI3Kβ was 10 to 20%; against PI3Kα, 0 to 10%. Besides, the half-inhibitory concentration (IC50) amounted to 122 nM against PI3Kγ and 33.3 nM at PI3Kδ. Also, the inhibition at 0.1 µM at PI3Kγ was 20 to 40%; on PI3Kδ, 80 to 100%.

For the compound `CC(C)Oc1ccc(-c2nn(C(C)c3cc4cccc(F)c4c(=O)n3-c3ccccc3)c3ncnc(N)c23)cc1F` (stereo not drawn) [Example 2, 3-(1-(4-amino-3-(3-fluoro-4-isopropoxyphenyl)-1H-pyrazolo[3,4-d]pyrimidin-1-yl)ethyl)-8-fluoro-2-phenylisoquinolin-1(2H)-one], the inhibition at 1 µM against PI3Kβ was in the range of 10 to 20%; at PI3Kα, 0 to 10%. Moreover, the inhibition at 0.1 µM on PI3Kγ and against PI3Kδ was 0 to 20% each time.

With `CC(C)Oc1ccc(-c2nn(C(C)c3nc4ccccc4c(=O)n3-c3ccccc3)c3ncnc(N)c23)cc1F` (stereo not drawn) [Example 6, 2-(1-(4-amino-3-(3-fluoro-4-isopropoxyphenyl)-1H-pyrazolo[3,4-d]pyrimidin-1-yl)ethyl)-3-phenylquinazolin-4(3H)-one], the inhibition at 1 µM on PI3Kβ and against PI3Kα was 0 to 10% in each case. Also, the inhibition at 0.1 µM against PI3Kγ lay in the range of 40 to 60%; against PI3Kδ it was 80 to 100%.

With `C[C@@H](c1cc2cccc(F)c2c(=O)n1-c1ccccc1)n1nc(-c2ccc(O)c(F)c2)c2c(N)ncnc21` [Example 15a, (+)-3-(1-(4-amino-3-(3-fluoro-4-hydroxyphenyl)-1H-pyrazolo[3,4-d]pyrimidin-1-yl)ethyl)-8-fluoro-2-phenylisoquinolin-1(2H)-one], the inhibition at 1 µM at PI3Kβ was 10 to 20%; on PI3Kα it was 0 to 10%. Also, the values for the IC50 against PI3Kγ and on PI3Kδ were 52 nM and 9.99 nM, respectively. The figures for the inhibition at 0.1 µM at PI3Kγ and at PI3Kδ were 40 to 60% and 80 to 100%, respectively.

`CC(c1cc2ccccc2c(=O)n1-c1ccccc1)n1nc(-c2ccc(O)c(F)c2)c2c(N)ncnc21` (stereo not drawn) [Example 7, 3-(1-(4-amino-3-(3-fluoro-4-hydroxyphenyl)-1H-pyrazolo[3,4-d]pyrimidin-1-yl)ethyl)-2-phenylisoquinolin-1(2H)-one]: the inhibition at 1 µM fell in the range of 20 to 40% against PI3Kβ and 10 to 20% against PI3Kα. Further, the inhibition at 0.1 µM against PI3Kγ lay within 20 to 40%; against PI3Kδ it was 40 to 60%.
